Reference: patent US6372279B1, “Sweetener composition” (Ajinomoto Co., Inc., priority 1998, dated 2002)

What was measured:
[1] = Dissolution time in 900 ml water (20° C.), 1-L elution tester, Japanese Pharmacopoeia Paddle method, 100 rpm; assay type: physicochemical
Experimental: A predetermined amount of the sample was introduced into 900 ml water (20° C.) in a 1-L elution tester (the Japanese Pharmacopoeia, Paddle method, 100 rpm) and its dissolution time was measured (end point was visually confirmed).
Specifically, 1 g of the sample taken from each mixture consisting of NM C-type crystals (average particle size (diameter) of about 100 μm) and ACE-K raw powder (average particle size of about 20 μm) at a predetermined ratio (ACE-K content (% by weight)) shown in Table 1 below, was weighed and measured for its dissolution time. For comparison, 1.00 g, 0.90 g, 0.80 g, 0.50 g, 0.10 g, and 0.03 g samples were taken from said NM crystals and their dissolution times were determined in the same manner.
The dissolution times of mixtures of NM and ACE-K were measured in the same manner as in Experimental Example 1 except that NM A-type crystals were used in place of NM C-type crystals.
The sample amount for each mixture and the amount of NM alone (NM A-type crystals) were the same as that in Example 1.
The same NM crystals as those in Experimental Example 1 were used as NM, and the same ACE-K powder (average particle size (diameter) of about 20 μm) as that in Experimental Example 1 was used as ACE-K, and the dissolution times thereof were determined in the same manner as in Experimental Example 1.
That is, 0.5 g each of both of them was weighed (1.0 g in total) and introduced simultaneously without being previously mixed, into the elution tester (separate addition). For reference, the dissolution time of 0.5 g NM C-type crystals alone (Experimental Example 1) is also shown together in the table.

[2] = Quality of sweetness compared to sucrose (early taste, later taste, astringent taste); conditions: found by the present inventors
Description: It is reported that the sweetness strength or sweetening potency of the synthetic high-potency sweetener, NM, is about 10,000 times that of sucrose in terms of weight ratio (Japanese Patent Kohyou Publication JP-A-8-503206). […] Further, NM has a strong astringent taste. Accordingly, the balance of the quality of sweetness properties for NM is poor when compared to sucrose. Sucrose is generally regarded as the standard for evaluating the properties or characteristics of the quality of sweetness.

[3] = in terms of weight ratio; cited from earlier work

In the case of `COC(=O)[C@H](Cc1ccccc1)NC(=O)[C@H](CC(=O)O)NCCC(C)(C)C` [NM C-type crystals, N-{N-(3,3-dimethylbutyl)-L-α-aspartyl}-L-phenylalanine 1-methyl ester], the Dissolution time ([1]; NM C-type crystals alone, 0.80 g in 900 ml water, 20° C.) is reported as 58 min.

With `COC(=O)[C@H](Cc1ccccc1)NC(=O)[C@H](CC(=O)O)NCCC(C)(C)C` [NM, N-{N-(3,3-dimethylbutyl)-L-α-aspartyl}-L-phenylalanine 1-methyl ester] the Dissolution time ([1]; 0.51 g of NM alone (amount of equal sweetness to 1 g mixture containing 50% ACE-K)) was “about 60 minutes”, the Early taste ([2]; compared to sucrose) was “extremely weak” and the Later taste ([2]; compared to sucrose) was “extremely strong”. For the same compound, the Astringent taste [2] was “strong” and the “Sweetness strength or sweetening potency” value [3] was “about 10,000 times that of sucrose”.

For `COC(=O)[C@H](Cc1ccccc1)NC(=O)[C@H](CC(=O)O)NCCC(C)(C)C` [NM A-type crystals, N-{N-(3,3-dimethylbutyl)-L-α-aspartyl}-L-phenylalanine 1-methyl ester, reference compound], the Dissolution time ([1]; NM A-type crystals alone, 0.80 g in 900 ml water, 20° C.) was 38 min.

In the case of `CC1=CC(=O)[N-]S(=O)(=O)O1.[K+]` [ACE-K, Acesulfame K], the “Sweetness strength or sweetening potency” value [3] is listed as “about 200 times that of sucrose”.
